Data published in article PMC6443832, “Designing and Characterization of a Novel Delivery System for Improved Cellular Uptake by Brain Using Dendronised Apo-E-Derived Peptide” (Frontiers in Bioengineering and Biotechnology, 2019).

Legend:
bEnd.3 cells [1] = test: Cellular uptake by laser scanning confocal microscopy (LSCM); details: FITC-labeled; confluent bEnd.3 cells; 1 h treatment; formalin-fixed; LSCM 488 laser; qualitative, versus untreated control cells
Procedure: The bEnd.3 cells were treated at confluence with FITC-labeled products dissolved in DMEM and incubated for 1 h (the appropriate incubation time for dendrons with this type of cell line). The cells were then fixed with 3.7% (v/v) formalin, and analyzed by LSCM (Leica TCS SP5, UK), using a 488-visible laser source.

bEnd.3 cells [2] = test: LDH release cytotoxicity assay; details: confluent bEnd.3 cells; concentrations up to 400 μM; 24 and 48 h; absorbance 492 nm; relative to complete lysis control (100% lysis); mean of n = 6
Procedure: The bEnd.3 cells were cultured, according to ATCC-product sheet instruction, in DMEM high glucose medium with L-pyruvate, containing 10 % (v/v) fetal bovine serum and 1% (v/v) of 500 U/ml Penicillin/Streptomycin (Gibco, Germany). Cells were seeded at a density of 5 × 10^4 cells per cm^2 in 24-well plates then incubated at 37°C and 5% CO2 and the culture media was replaced every 3 days.
Experiments were performed when cells reached confluence. A range of concentrations (25, 50, 100, 150, 200, 300, and 400 μM) of each AMT-competent G0-, G1-dendron, and RMT-competent AEP-dendron were used in each experiment.
Lactate dehydrogenase (LDH) was measured using Promega CytoTox96® non-radioactive cytotoxicity assay kit (UK) after 24 and 48 h incubation. Absorbance was read spectrophotometrically at 492 nm and converted to a percentage of the total LDH released from the positive control (cells subjected to complete lysis) for 6 replicates.

bEnd.3 cells [3] = test: Cellular uptake by flow cytometry; details: FITC-labeled carrier in DMEM; confluent bEnd.3 cells; 1 h incubation; flow cytometry FL1-H channel; in comparison to negative control (untreated cells)
Procedure: The bEnd.3 cells were cultured and treated at confluence with 100 μL FITC-labeled products dissolved in DMEM for 1 h. The cells were washed with phosphate buffer solution twice and trypsinised and then harvested to be analyzed using BD C6 sampler flow cytometer (BD Accuri C6, Bioscience, UK). Samples of cells without treatment were also included as a control, and the analysis was carried out through the FL1-H channel for FITC detection.

O=C1OC2(c3ccc(O)cc3Oc3cc(O)ccc32)c2ccc(N=C=S)cc21 [FITC, fluorescein-5-isothiocyanate, reference compound]
cellular uptake (green fluorescence inside the cells) (bEnd.3 cells [1]): negative results

NCCCC[C@H](N)C(=O)N[C@@H](Cc1ccccc1)C(N)=O [G0-dendron]
cell membrane lysis (LDH release) as % of positive control (bEnd.3 cells [2]): < 10%
cellular uptake (green fluorescence inside the cells) (bEnd.3 cells [1]): successful cellular uptake
cellular uptake (bEnd.3 cells [3]): 38.7%

H-KLRKLRKRLLR-NH2 (C-terminus assumed) [AEP-dendron]
cell membrane lysis (LDH release) as % of positive control (bEnd.3 cells [2]): < 10%
cellular uptake (bEnd.3 cells [3]): 90.7%
